Data published in ChEMBL document CHEMBL5584206, “Discovery of (S)-3-(4-(benzyloxy)phenyl)-2-(2-phenoxyacetamido)propanoic acid derivatives as a new class of GPR34 antagonists” (Bioorg Med Chem Lett, 2024).
Calls of active or inactive are those of the source. No cut-off for these calls is given here.

Tests used:
[1] = target: T1, Probable G-protein coupled receptor 34 (Homo sapiens, UniProt Q9UPC5); test: Antagonist activity at GPR34 (unknown origin) by Glosensor cAMP assay; format: functional
[2] = Cytotoxicity against human HUVEC cells incubated for 72 hrs by MTT assay; format: toxicity, cell-based
[3] = target: T2, Cannabinoid receptor 2 (Homo sapiens, UniProt P34972); test: Agonist activity at CB2 (unknown origin); format: functional
[4] = Cytotoxicity against human Muller cells incubated for 72 hrs by MTT assay; format: toxicity, cell-based, Muller cell
[5] = target: T2, Cannabinoid receptor 2; test: Antagonist activity at CB2 (unknown origin); format: functional
[6] = Toxicity in C57BL/6 mouse assessed as indications of organ damage at 100 mg/kg, ip bid for 6 days consecutively; format: organism-based; conditions: in vivo, 144 h, time 6 day
[7] = target: T3, P2Y purinoceptor 12 (Homo sapiens, UniProt Q9H244); test: Antagonist activity at P2Y12R (unknown origin); format: functional
[8] = Cytotoxicity against African green monkey COS-7 cells incubated for 72 hrs by MTT assay; format: toxicity, cell-based, Chlorocebus aethiops
[9] = target: T4, Lysophosphatidic acid receptor 4 (Homo sapiens, UniProt Q99677); test: Agonist activity at LPAR4 (unknown origin); format: functional
[10] = Cytotoxicity against human LX2 cells incubated for 72 hrs by MTT assay; format: toxicity, cell-based; conditions: LX-2 cells
[11] = test system: Mus musculus; test: Antinociceptive activity in mouse model of SNI-induced neuropathic pain assessed as reduction in mechanical allodynia at 10 to 20 mg/kg, ip bid; format: functional, organism-based; conditions: dose 10-20 mg/kg
[12] = target: T5, Lysophosphatidic acid receptor 3 (Homo sapiens, UniProt Q9UBY5); test: Antagonist activity at LPAR3 (unknown origin); format: functional
T5 sequence (Q9UBY5 whole entry): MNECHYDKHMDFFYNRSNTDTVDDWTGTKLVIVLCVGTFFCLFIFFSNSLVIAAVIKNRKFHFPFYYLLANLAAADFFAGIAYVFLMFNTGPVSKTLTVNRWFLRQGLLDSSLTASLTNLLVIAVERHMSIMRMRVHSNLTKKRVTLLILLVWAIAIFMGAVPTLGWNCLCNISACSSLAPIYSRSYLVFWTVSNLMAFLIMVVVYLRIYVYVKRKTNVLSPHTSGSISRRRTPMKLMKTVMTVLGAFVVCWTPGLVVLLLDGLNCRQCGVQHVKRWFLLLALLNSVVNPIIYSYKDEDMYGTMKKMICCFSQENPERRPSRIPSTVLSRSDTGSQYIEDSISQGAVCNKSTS

[13] = target: T6, C-X-C chemokine receptor type 5 (Homo sapiens, UniProt P32302); test: Antagonist activity at CXCR5 (unknown origin); format: functional
T6 sequence (P32302 whole entry): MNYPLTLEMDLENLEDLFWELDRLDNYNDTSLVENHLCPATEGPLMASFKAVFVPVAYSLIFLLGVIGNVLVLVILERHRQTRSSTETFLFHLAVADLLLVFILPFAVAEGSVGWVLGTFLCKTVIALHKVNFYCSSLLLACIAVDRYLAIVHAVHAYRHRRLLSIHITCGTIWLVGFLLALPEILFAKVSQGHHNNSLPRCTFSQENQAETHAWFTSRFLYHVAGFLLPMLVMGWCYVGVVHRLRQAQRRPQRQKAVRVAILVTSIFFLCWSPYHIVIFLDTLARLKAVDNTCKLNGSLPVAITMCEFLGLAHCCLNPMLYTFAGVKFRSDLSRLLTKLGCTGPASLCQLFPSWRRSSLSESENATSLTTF

[14] = target: T3, P2Y purinoceptor 12; test: Agonist activity at P2Y12R (unknown origin); format: functional
[15] = Acute toxicity in C57BL/6 mouse assessed as animal death at 200 mg/kg, ip; format: organism-based; conditions: in vivo
[16] = target: T1, Probable G-protein coupled receptor 34; test: Antagonist activity at GPR34 (unknown origin) by Tango assay; format: functional
[17] = target: T7, Adenosine receptor A3 (Homo sapiens, UniProt P0DMS8); test: Antagonist activity at A3AR (unknown origin); format: functional
T7 sequence (P0DMS8 whole entry): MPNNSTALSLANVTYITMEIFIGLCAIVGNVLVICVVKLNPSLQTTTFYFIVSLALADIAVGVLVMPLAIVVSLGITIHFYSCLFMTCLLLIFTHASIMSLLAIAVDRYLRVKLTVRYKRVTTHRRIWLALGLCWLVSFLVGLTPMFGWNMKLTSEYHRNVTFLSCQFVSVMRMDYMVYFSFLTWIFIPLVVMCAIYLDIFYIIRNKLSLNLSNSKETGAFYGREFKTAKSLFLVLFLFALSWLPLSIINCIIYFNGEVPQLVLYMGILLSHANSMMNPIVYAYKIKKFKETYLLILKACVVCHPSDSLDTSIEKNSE

[18] = target: T7, Adenosine receptor A3; test: Agonist activity at A3AR (unknown origin); format: functional
[19] = target: T5, Lysophosphatidic acid receptor 3; test: Agonist activity at LPAR3 (unknown origin); format: functional
[20] = target: T6, C-X-C chemokine receptor type 5; test: Agonist activity at CXCR5 (unknown origin); format: functional
[21] = Cytotoxicity against HEK293 cells incubated for 72 hrs by MTT assay; format: toxicity, cell-based; conditions: human
[22] = Cytotoxicity against human BEAS-2B cells incubated for 72 hrs by MTT assay; format: toxicity, cell-based
[23] = target: T4, Lysophosphatidic acid receptor 4; test: Antagonist activity at LPAR4 (unknown origin); format: functional
[24] = Toxicity in C57BL/6 mouse assessed as body weight change at 100 mg/kg, ip bid for 6 days consecutively; format: organism-based; conditions: in vivo, 144 h, time 6 day

T1 sequence (Q9UPC5 whole entry): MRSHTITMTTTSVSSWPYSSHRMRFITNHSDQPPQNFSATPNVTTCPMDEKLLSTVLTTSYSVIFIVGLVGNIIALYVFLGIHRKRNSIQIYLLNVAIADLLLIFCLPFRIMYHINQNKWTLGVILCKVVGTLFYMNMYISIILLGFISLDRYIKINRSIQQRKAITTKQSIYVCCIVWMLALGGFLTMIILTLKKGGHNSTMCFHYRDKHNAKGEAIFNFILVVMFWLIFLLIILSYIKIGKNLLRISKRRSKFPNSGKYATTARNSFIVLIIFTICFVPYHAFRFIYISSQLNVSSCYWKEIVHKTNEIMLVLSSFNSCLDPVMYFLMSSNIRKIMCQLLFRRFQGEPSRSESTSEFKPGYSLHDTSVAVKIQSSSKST
T4 sequence (Q99677 whole entry): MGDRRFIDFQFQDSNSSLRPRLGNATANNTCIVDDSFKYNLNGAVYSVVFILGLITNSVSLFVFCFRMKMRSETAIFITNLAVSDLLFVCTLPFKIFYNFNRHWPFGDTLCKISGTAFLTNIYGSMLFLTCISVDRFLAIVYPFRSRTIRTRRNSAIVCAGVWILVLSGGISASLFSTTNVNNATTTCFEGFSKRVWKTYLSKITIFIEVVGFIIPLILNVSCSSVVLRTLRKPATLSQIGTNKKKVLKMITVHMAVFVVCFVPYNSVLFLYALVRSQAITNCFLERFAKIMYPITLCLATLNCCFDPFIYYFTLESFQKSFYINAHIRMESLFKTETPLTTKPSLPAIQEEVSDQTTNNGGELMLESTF
T3 sequence (Q9H244 whole entry): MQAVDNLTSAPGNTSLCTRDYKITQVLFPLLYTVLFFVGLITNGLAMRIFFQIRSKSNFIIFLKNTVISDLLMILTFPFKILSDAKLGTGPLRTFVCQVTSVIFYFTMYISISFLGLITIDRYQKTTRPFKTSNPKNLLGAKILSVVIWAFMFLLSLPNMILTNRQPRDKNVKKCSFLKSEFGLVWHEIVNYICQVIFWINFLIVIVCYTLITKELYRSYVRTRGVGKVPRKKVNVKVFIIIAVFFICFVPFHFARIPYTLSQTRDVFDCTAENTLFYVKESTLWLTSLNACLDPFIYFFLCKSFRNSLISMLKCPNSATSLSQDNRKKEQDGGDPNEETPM
T2 sequence (P34972 whole entry): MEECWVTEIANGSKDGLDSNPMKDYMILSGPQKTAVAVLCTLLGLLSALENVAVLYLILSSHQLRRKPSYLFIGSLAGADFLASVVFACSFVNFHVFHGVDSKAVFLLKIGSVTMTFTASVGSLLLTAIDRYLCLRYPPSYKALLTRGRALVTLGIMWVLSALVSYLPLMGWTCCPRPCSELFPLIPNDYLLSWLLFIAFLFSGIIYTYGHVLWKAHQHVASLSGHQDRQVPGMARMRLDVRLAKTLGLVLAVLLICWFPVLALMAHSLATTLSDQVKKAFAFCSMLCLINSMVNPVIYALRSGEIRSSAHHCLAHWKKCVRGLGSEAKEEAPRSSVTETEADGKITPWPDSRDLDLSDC

For `O=C(COc1ccc(-c2cccc(Cl)c2)cc1)N[C@@H](CC1CCCCC1)C(=O)O`, the IC50 [1] was over 30 µM.

For `O=C(COc1ccc(-c2ccccc2F)cc1)N[C@@H](Cc1ccc(OCc2ccccc2)cc1)C(=O)O`, the IC50 [1] was over 30 µM.

`O=C(COc1ccc(-c2cccc(Cl)c2)cc1)N[C@H](Cc1ccc(OCc2ccccc2)cc1)C(=O)O` gave an IC50 [1] of 2.98 µM.

`COc1cccc(-c2ccc(OCC(=O)N[C@@H](Cc3ccc(OCc4ccccc4)cc3)C(=O)O)cc2)c1` gave an IC50 [1] of over 30 µM.

`O=C(COc1ccc(-c2cccc(Cl)c2)cc1)N[C@@H](Cc1ccc(O)cc1)C(=O)O` gave an IC50 [1] of over 30 µM.

Compound `O=C(COc1ccc(-c2cccc(Cl)c2)cc1)N[C@@H](Cc1ccccc1)C(=O)O` has an IC50 [1] of over 30 µM.

`COC(=O)[C@H](Cc1ccc(OCc2ccccc2)cc1)NC(=O)COc1ccc(-c2cccc(Cl)c2)cc1` gave an IC50 [1] of over 30 µM.

Compound `O=C(COc1ccc(-c2cccc(Cl)c2)cc1)N[C@@H](Cc1ccc(OCc2ccccc2)cc1)C(=O)O` has an IC50 at 72 h [2] of over 30 µM, an EC50 [3] of over 10 µM and an IC50 at 72 h [4] of over 30 µM. The EC50 [5] was over 10 µM, the Activity [6] was “Non-Toxic” and the EC50 [7] was over 10 µM. For the same compound, the IC50 at 72 h [8] was over 30 µM, the EC50 [9] was over 10 µM and the IC50 at 72 h [10] was over 30 µM. The Activity [11] was “Active”, the EC50 [12] was over 10 µM and the EC50 [13] was over 10 µM. The EC50 [14] was over 10 µM, the Activity [15] was “Non-Toxic” and the IC50 [16] was 0.059 µM. It also gave an EC50 [17] of over 10 µM, an IC50 [1] of 0.68 µM and an EC50 [18] of over 10 µM. For the same compound, the EC50 [19] was over 10 µM, the EC50 [20] was over 10 µM and the IC50 at 72 h [21] was over 30 µM. The IC50 at 72 h [22] was over 30 µM, the EC50 [23] was over 10 µM and the Activity [24] was “Non-Toxic”.

Compound `O=C(COc1cccnc1)N[C@@H](Cc1ccc(OCc2ccccc2)cc1)C(=O)O` has an IC50 [1] of over 30 µM.

Work on `O=C(COc1ccccc1F)N[C@@H](Cc1ccc(OCc2ccccc2)cc1)C(=O)O` yielded an IC50 [1] of over 30 µM.

Work on `O=C(COc1ccc(-c2ccc(F)cc2)cc1)N[C@@H](Cc1ccc(OCc2ccccc2)cc1)C(=O)O` yielded an IC50 [1] of 0.968 µM.

`CC(C)c1ccc(OCC(=O)N[C@@H](Cc2ccc(OCc3ccccc3)cc2)C(=O)O)cc1` gave an IC50 [1] of over 30 µM.

Work on `COc1cccc(OCC(=O)N[C@@H](Cc2ccc(OCc3ccccc3)cc2)C(=O)O)c1` yielded an IC50 [1] of over 30 µM.

Work on `NC(=O)[C@H](Cc1ccc(OCc2ccccc2)cc1)NC(=O)COc1ccc(-c2cccc(Cl)c2)cc1` yielded an IC50 [1] of over 30 µM.

Compound `N#Cc1cccc(OCC(=O)N[C@@H](Cc2ccc(OCc3ccccc3)cc2)C(=O)O)c1` has an IC50 [1] of 17.4 µM.

Compound `O=C(COc1cccc(F)c1)N[C@@H](Cc1ccc(OCc2ccccc2)cc1)C(=O)O` has an IC50 [1] of 13.9 µM.

Work on `O=C(COc1ccc(-c2ccc(Cl)cc2)cc1)N[C@@H](Cc1ccc(OCc2ccccc2)cc1)C(=O)O` yielded an IC50 [1] of 1.57 µM.

`Cn1nccc1-c1ccc(OCC(=O)N[C@@H](Cc2ccc(OCc3ccccc3)cc2)C(=O)O)cc1` showed an IC50 [1] of over 30 µM.

`C[C@H](NC(=O)COc1ccc(-c2cccc(Cl)c2)cc1)C(=O)O` gave an IC50 [1] of over 30 µM.

Compound `O=C(COc1ccccc1)N[C@@H](Cc1ccc(OCc2ccccc2)cc1)C(=O)O` has an IC50 [1] of over 30 µM.

In the case of `O=C(COc1ccc(-c2cccc(F)c2)cc1)N[C@@H](Cc1ccc(OCc2ccccc2)cc1)C(=O)O`, the IC50 [1] is reported as 1.28 µM.

In the case of `O=C(COc1ccc(F)cc1)N[C@@H](Cc1ccc(OCc2ccccc2)cc1)C(=O)O`, the IC50 [1] is reported as 11.6 µM.

Compound `O=C(COc1ccc(Cl)cc1)N[C@@H](Cc1ccc(OCc2ccccc2)cc1)C(=O)O` has an IC50 [1] of over 30 µM.

With `O=C(COc1ccc(-c2cccc(C(F)(F)F)c2)cc1)N[C@@H](Cc1ccc(OCc2ccccc2)cc1)C(=O)O` the IC50 [1] was 1.31 µM.

In the case of `Cc1ccc(OCC(=O)N[C@@H](Cc2ccc(OCc3ccccc3)cc2)C(=O)O)cc1`, the IC50 [1] is reported as over 30 µM.
